From PubChem BioAssay (NCI)
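Interpolation was linear, between the two tested concentrations surrounding the appropriate level; five concentrations were tested over 48 hours in 96-well plates. Definition used: TGI = concentration required for complete inhibition of growth.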

Legend:
Test in all cases: NCI-60 cell line screen, 48 h
HT29 colon = test system: HT29 colon
BT-549 breast = test system: BT-549 breast
SR leukemia = test system: SR leukemia
MALME-3M melanoma = test system: MALME-3M melanoma
SN12C renal = test system: SN12C renal
SK-MEL-2 melanoma = test system: SK-MEL-2 melanoma
MDA-MB-231 breast = test system: MDA-MB-231 breast
ACHN renal = test system: ACHN renal
COLO 205 colon = test system: COLO 205 colon
PC-3 prostate = test system: PC-3 prostate
IGROV1 ovarian = test system: IGROV1 ovarian
NCI-H23 lung = test system: NCI-H23 lung
SK-OV-3 ovarian = test system: SK-OV-3 ovarian
KM12 colon = test system: KM12 colon
NCI/ADR-RES ovarian = test system: NCI/ADR-RES ovarian
HCC-2998 colon = test system: HCC-2998 colon
MDA-MB-435 = test system: MDA-MB-435
A498 renal = test system: A498 renal
HS 578T breast = test system: HS 578T breast
A549 NSCLC = test system: A549 NSCLC
SNB-19 CNS = test system: SNB-19 CNS
MCF7 breast = test system: MCF7 breast
OVCAR-3 ovarian = test system: OVCAR-3 ovarian
SF-268 CNS = test system: SF-268 CNS
TK-10 renal = test system: TK-10 renal
OVCAR-5 ovarian = test system: OVCAR-5 ovarian
SF-295 CNS = test system: SF-295 CNS
HCT-15 colon = test system: HCT-15 colon
SK-MEL-28 melanoma = test system: SK-MEL-28 melanoma
UACC-257 melanoma = test system: UACC-257 melanoma
UO-31 renal = test system: UO-31 renal
SNB-75 CNS = test system: SNB-75 CNS
CCRF-CEM leukemia = test system: CCRF-CEM leukemia
MDA-N = test system: MDA-N
HOP-62 NSCLC = test system: HOP-62 NSCLC
EKVX NSCLC = test system: EKVX NSCLC
SF-539 CNS = test system: SF-539 CNS
OVCAR-4 ovarian = test system: OVCAR-4 ovarian
NCI-H522 lung = test system: NCI-H522 lung
OVCAR-8 ovarian = test system: OVCAR-8 ovarian
786-0 renal = test system: 786-0 renal
U251 CNS = test system: U251 CNS
MOLT-4 leukemia = test system: MOLT-4 leukemia
SK-MEL-5 melanoma = test system: SK-MEL-5 melanoma
T-47D breast = test system: T-47D breast
HL-60(TB) leukemia = test system: HL-60(TB) leukemia
M14 melanoma = test system: M14 melanoma
CAKI-1 renal = test system: CAKI-1 renal
UACC-62 melanoma = test system: UACC-62 melanoma
HCT-116 colon = test system: HCT-116 colon
SW-620 colon = test system: SW-620 colon
K-562 leukemia = test system: K-562 leukemia
DU-145 prostate = test system: DU-145 prostate
LOX IMVI melanoma = test system: LOX IMVI melanoma
NCI-H226 lung = test system: NCI-H226 lung
RPMI-8226 leukemia = test system: RPMI-8226 leukemia
NCI-H460 lung = test system: NCI-H460 lung

Measured: TGI

O/N=C\c1c2c(cc3c1CCC3)CCC2
> 100 µM: HT29 colon | BT-549 breast | SR leukemia | MALME-3M melanoma | SN12C renal | SK-MEL-2 melanoma | MDA-MB-231 breast | ACHN renal | COLO 205 colon | PC-3 prostate | IGROV1 ovarian | NCI-H23 lung | SK-OV-3 ovarian | KM12 colon | NCI/ADR-RES ovarian | HCC-2998 colon | MDA-MB-435 | A498 renal | HS 578T breast | A549 NSCLC | SNB-19 CNS | MCF7 breast | OVCAR-3 ovarian | SF-268 CNS | TK-10 renal | OVCAR-5 ovarian | SF-295 CNS | HCT-15 colon | SK-MEL-28 melanoma | UACC-257 melanoma | UO-31 renal | SNB-75 CNS | CCRF-CEM leukemia | MDA-N | HOP-62 NSCLC | EKVX NSCLC | SF-539 CNS | OVCAR-4 ovarian | NCI-H522 lung | OVCAR-8 ovarian | 786-0 renal | U251 CNS | MOLT-4 leukemia | SK-MEL-5 melanoma | T-47D breast | HL-60(TB) leukemia | M14 melanoma | CAKI-1 renal | UACC-62 melanoma | HCT-116 colon | SW-620 colon | K-562 leukemia | DU-145 prostate | LOX IMVI melanoma | NCI-H226 lung | RPMI-8226 leukemia | NCI-H460 lung
